≈ marks a conversion by molar mass, not a printed value. Like-named read-outs stand apart in the source and are kept apart here.
Key:
[1] = Test for pharmacokinetics and oral absorbability in monkeys; type: in vivo; conditions: orally 0.5 mg/kg, single agent; for AUC (ng · h/ml): total area under the plasma concentration versus time curve: LC/MS/MS
Experimental: The pharmacokinetic parameters in the case of orally administering (0.5 mg/kg, single agent) the substance under test to monkeys, were as follows.

[2] = molecular target: T1, hα4 and β1 integrins (Homo sapiens, UniProt P05556+P13612); assay: In vitro inhibition of binding between CHO cells expressing hα4 and β1 integrins and Eu3+-hVCAM-1 D1D7-IgG; conditions: for Ki: CHO cells expressing hα4 and β1 integrins, Eu3+-hVCAM-1 D1D7-IgG ligand, without HSA; for IC50: in the presence of 3% human serum albumin (HSA final concentration 3%)
T1 construct: expressed in transfected cells; host or cells: CHO cells
Method in brief: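 Transfected CHO cells, cultured 2 days, were incubated with compound and Eu³⁺-hVCAM-1 D1D7-IgG (diluted to 2 nM) for 1 h at room temperature. Buffer was 25 mM HEPES pH 7.5 with 1 mM Ca²⁺, 1 mM Mg²⁺, 4 mM Mn²⁺ and 0.1% BSA, ±3% HSA final. Cells were washed at 4 °C and read by DELFIA time-resolved fluorescence; Ki was derived from IC50 using the Scatchard Kd.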

[3] = Solubility test in first and second liquid of the Japanese Pharmacopoeia
Experimental: (§2) The solubilities of the substance under test in the first liquid (JP1, pH=1.2) of the Japanese Pharmacopoeia and the second liquid (JP2, pH=6.8) of the Japanese Pharmacopoeia, were evaluated.

[4] = for Solubility, First liquid of Japanese Pharmacopoeia: pH 1.2; for Solubility, Second liquid of Japanese Pharmacopoeia: pH 6.8
Experimental: as §2

[5] = test system: eosinophile infiltration in mice actively sensitized with ascaris; assay: Test for eosinophile infiltration in mice actively sensitized with ascaris, administered two times a day; type: in vivo; conditions: orally 5 mg/kg two times a day; for inhibition in vivo at 5 mg/kg: Mus musculus, po, eosinophile count in BALF 48 hours after sensitization vs ascaris-sensitized group, read-out: suppression rate (%); for Average total eosinophile count (×10^5) of (ascaris-sensitized + substance under test) group: BALF 48 hours after sensitization
Experimental: (§1) Test for eosinophile infiltration in mice actively sensitized with ascaris (antigen to pig roundworm):
It has been reported that infiltration of eosinophilic cells is induced by active sensitization with ascaris {Int. Arch. Immuno., 108, 11-18 (1995)}. An evaluation of the compounds under test was performed according to the evaluation method described herein. The substance under test was orally administered in an amount of 5 mg/kg, two times a day. The total cell count and the eosinophile count in BALF of 48 hours after sensitization were calculated, and the effects were determined by comparing with the group not administered with the substance under test.

[6] = test system: eosinophile infiltration in mice actively sensitized with ascaris; assay: Test for eosinophile infiltration in mice actively sensitized with ascaris, once-a-day administration; type: in vivo
Experimental: as §1
In the same manner as in Evaluation Example 2, the substances under test were orally administered once a day, in an amount of 5 mg/kg for compound A (representative compound of WO 02/053534) and the compound of Example 58, and in an amount of 0.8 mg/kg of the compound of Example 161, and an evaluation was performed in the same manner as in Evaluation Example 2.

[7] = first liquid of the Japanese Pharmacopoeia (JP1), pH 1.2, simulated gastric fluid, First liquid of Japanese Pharmacopoeia (μg/mL), JP1, pH=1.2
[8] = second liquid of the Japanese Pharmacopoeia (JP2), pH 6.8, aqueous buffer, Second liquid of Japanese Pharmacopoeia (μg/mL), JP2, pH=6.8

T1 sequence (P13612 34-1032): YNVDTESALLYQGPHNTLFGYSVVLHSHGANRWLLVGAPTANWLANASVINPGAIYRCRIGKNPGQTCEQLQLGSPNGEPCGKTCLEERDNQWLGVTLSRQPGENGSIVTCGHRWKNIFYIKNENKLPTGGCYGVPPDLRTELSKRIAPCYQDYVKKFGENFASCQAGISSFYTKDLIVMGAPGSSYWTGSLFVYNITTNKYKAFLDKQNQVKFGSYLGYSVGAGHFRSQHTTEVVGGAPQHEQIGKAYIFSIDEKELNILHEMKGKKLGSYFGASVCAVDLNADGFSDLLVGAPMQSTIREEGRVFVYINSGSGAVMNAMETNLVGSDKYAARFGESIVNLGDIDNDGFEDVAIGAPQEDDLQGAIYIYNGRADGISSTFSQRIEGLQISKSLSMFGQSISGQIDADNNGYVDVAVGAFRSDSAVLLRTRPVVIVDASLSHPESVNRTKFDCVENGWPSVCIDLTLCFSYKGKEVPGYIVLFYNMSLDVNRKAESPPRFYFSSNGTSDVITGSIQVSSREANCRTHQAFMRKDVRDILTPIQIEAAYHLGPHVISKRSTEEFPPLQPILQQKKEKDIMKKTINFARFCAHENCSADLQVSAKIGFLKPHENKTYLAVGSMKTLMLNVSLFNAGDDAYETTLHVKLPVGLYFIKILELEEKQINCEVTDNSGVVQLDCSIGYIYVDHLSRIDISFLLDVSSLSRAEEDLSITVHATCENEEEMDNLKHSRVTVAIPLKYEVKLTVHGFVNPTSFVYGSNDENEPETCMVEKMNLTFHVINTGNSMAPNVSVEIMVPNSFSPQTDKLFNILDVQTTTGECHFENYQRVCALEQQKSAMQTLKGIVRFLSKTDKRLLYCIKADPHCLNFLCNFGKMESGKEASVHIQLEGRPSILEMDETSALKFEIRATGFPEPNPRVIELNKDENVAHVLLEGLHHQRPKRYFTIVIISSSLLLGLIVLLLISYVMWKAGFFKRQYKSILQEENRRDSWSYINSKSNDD
T1 sequence (P05556 21-798): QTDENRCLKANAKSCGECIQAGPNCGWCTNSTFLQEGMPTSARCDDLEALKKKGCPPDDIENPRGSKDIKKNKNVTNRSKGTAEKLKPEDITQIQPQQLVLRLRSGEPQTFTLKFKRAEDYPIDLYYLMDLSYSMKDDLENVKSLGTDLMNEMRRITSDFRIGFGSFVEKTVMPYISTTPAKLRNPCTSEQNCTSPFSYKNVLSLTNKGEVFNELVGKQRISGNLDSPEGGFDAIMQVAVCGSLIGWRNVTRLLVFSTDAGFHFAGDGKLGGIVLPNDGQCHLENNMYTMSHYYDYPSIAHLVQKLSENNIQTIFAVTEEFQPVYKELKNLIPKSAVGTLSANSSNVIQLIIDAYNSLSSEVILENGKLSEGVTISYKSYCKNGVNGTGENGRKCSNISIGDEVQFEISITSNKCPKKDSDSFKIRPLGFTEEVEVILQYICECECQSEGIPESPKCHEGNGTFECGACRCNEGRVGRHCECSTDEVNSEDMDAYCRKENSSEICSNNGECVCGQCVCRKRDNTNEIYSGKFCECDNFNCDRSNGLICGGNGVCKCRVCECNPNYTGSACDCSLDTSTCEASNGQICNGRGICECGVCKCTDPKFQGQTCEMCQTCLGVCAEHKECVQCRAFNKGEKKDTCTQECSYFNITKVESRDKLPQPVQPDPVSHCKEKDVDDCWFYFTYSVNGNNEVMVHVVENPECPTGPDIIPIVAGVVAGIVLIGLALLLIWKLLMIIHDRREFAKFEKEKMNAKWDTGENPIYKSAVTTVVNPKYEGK

Structure (SMILES)	Cltot (mL/min/kg): apparent plasma clearance [1] [mL/min/kg]	AUC (ng · h/ml): total area under the plasma concentration versus time curve [1] [ng·h/mL]	Ki [2] [nM]	IC50 [2] [nM]	Solubility, First liquid of Japanese Pharmacopoeia [4] [µg/mL]	Solubility, Second liquid of Japanese Pharmacopoeia [4] [µg/mL]	solubility [3, 7] [µg/mL]	solubility [3, 8] [µg/mL]	Solubility, First liquid of Japanese Pharmacopoeia ([3]; JP1, pH=1.2) [µg/mL]	Solubility, Second liquid of Japanese Pharmacopoeia ([3]; JP2, pH=6.8) [µg/mL]	inhibition in vivo at 5 mg/kg [5] [%]	Average total eosinophile count (×10^5) of (ascaris-sensitized + substance under test) group [5]	Average total eosinophile count (×10^5) of (ascaris-sensitized + substance under test) group ([6]; orally 5 mg/kg once a day)	Average total eosinophile count (×10^5) of (ascaris-sensitized + substance under test) group ([6]; orally 0.8 mg/kg once a day)
COC1CN([C@H]2C[C@@H](CO[C@H]3CC[C@H](C(=O)O)CC3)N(C(=O)Cc3cc(Cl)c(NC(=O)c4cn(C)c5ccccc45)cc3Cl)C2)C1 (relative stereo) [Example 2, Trans-4-[1-[[2,5-dichloro-4-[(1-methyl-1H-indol-3-ylcarbonyl)amino]phenyl]acetyl]-(4S)-(3-methoxyazetidin-1-yl)-(2S)-pyrrolidinylmethoxy]cyclohexanecarboxylic acid]	0.40	22185	2.2	17	–	–	–	–	>2000	>2000	–	–	–	–
COC1CN([C@H]2C[C@@H](CO[C@H]3CC[C@H](C(=O)O)CC3)N(C(=O)Cc3cc(Cl)c(NC(=O)c4csc5ccccc45)cc3Cl)C2)C1 (relative stereo) [Example 4, Trans-4-[1-[[4-[(benzo[b]thiophen-3-ylcarbonyl)amino]-2,5-dichlorophenyl]acetyl]-(4S)-(3-methoxyazetidin-1-yl)-(2S)-pyrrolidinylmethoxy]cyclohexanecarboxylic acid]	–	–	0.8	19	>2000	>2000	–	–	–	–	–	–	–	–
CO[C@H]1CN([C@H]2C[C@@H](CO[C@H]3CC[C@H](C(=O)O)CC3)N(C(=O)Cc3ccc(NC(=O)c4coc5ccccc45)c(Cl)c3)C2)C[C@H]1OC (relative stereo) [Example 61, Trans-4-[1-[[4-[(benzo[b]furan-3-ylcarbonyl)amino]-3-chlorophenyl]acetyl]-(4S)-(cis-3,4-dimethoxypyrrolidin-1-yl)-(2S)-pyrrolidinylmethoxy]cyclohexanecarboxylic acid]	–	–	1.6	5.5	1100	1300	–	–	–	–	–	–	–	–
CO[C@H]1CN([C@H]2C[C@@H](CO[C@H]3CC[C@H](C(=O)O)CC3)N(C(=O)Cc3cc(Cl)c(NC(=O)c4csc5ccccc45)cc3Cl)C2)C[C@H]1OC [Example 58, Trans-4-[1-[[4-[(benzo[b]thiophen-3-ylcarbonyl)amino]-2,5-dichlorophenyl]acetyl]-(4S)-(cis-3,4-dimethoxypyrrolidin-1-yl)-(2S)-pyrrolidinylmethoxy]cyclohexanecarboxylic acid]	2.0	7555	1.5	9.3	–	–	–	–	–	–	63	1.63 ×10^5	1.73 ×10^5	–
O=C(Nc1cc(F)c(CC(=O)N2C[C@@H](N3CCS(=O)(=O)CC3)C[C@H]2CO[C@H]2CC[C@H](C(=O)O)CC2)cc1Cl)c1coc2ccccc12 [Example 161, Trans-4-[1-[[4-[(benzo[b]furan-3-ylcarbonyl)amino]-5-chloro-2-fluorophenyl]acetyl]-(4S)-(1,1-dioxo-1λ^6-thiomorpholin-4-yl)-(2S)-pyrrolidinylmethoxy]cyclohexanecarboxylic acid]	–	–	1.8	8.3	–	–	–	–	–	–	–	–	–	2.06 ×10^5

Further molecules by falling Ki [2], results first:

Cltot (mL/min/kg): apparent plasma clearance [1] [mL/min/kg]	AUC (ng · h/ml): total area under the plasma concentration versus time curve [1] [ng·h/mL]	Ki [2] [nM]	IC50 [2] [nM]	Solubility, First liquid of Japanese Pharmacopoeia [4] [µg/mL]	Solubility, Second liquid of Japanese Pharmacopoeia [4] [µg/mL]	solubility [3, 7] [µg/mL]	solubility [3, 8] [µg/mL]	Structure (SMILES)	Solubility, First liquid of Japanese Pharmacopoeia ([3]; JP1, pH=1.2) [µg/mL]	Solubility, Second liquid of Japanese Pharmacopoeia ([3]; JP2, pH=6.8) [µg/mL]	inhibition in vivo at 5 mg/kg [5] [%]	Average total eosinophile count (×10^5) of (ascaris-sensitized + substance under test) group [5]	Average total eosinophile count (×10^5) of (ascaris-sensitized + substance under test) group ([6]; orally 5 mg/kg once a day)	Average total eosinophile count (×10^5) of (ascaris-sensitized + substance under test) group ([6]; orally 0.8 mg/kg once a day)
–	–	9.6	34	–	–	–	–	O=C(Nc1ccc(CC(=O)N2C[C@@H](N3CCN(CC(F)(F)F)CC3)C[C@H]2CO[C@H]2CC[C@H](C(=O)O)CC2)cc1Cl)c1nccc2ccccc12 [Example 127, Trans-4-[1-[[3-chloro-4-[(isoquinolin-1-ylcarbonyl)amino]phenyl]acetyl]-(4S)-[4-(2,2,2-trifluoroethyl)piperazin-1-yl]-(2S)-pyrrolidinylmethoxy]cyclohexanecarboxylic acid]	–	–	63	1.40 ×10^5	–	–
0.80	10799	9.5	37	–	–	> 2000	> 2000	CC1CN([C@H]2C[C@@H](CO[C@H]3CC[C@H](C(=O)O)CC3)N(C(=O)Cc3cc(Cl)c(NC(=O)c4cn(C)c5ccccc45)cc3Cl)C2)C1 [Example 10, Trans-4-[1-[[2,5-dichloro-4-[(1-methyl-1H-indol-3-ylcarbonyl)amino]phenyl]acetyl]-(4S)-(3-methylazetidin-1-yl)-(2S)-pyrrolidinylmethoxy]cyclohexanecarboxylic acid]	–	–	44	1.73 ×10^5	–	–
0.56	15064	5.2	42	–	–	–	–	C[C@@H]1CN([C@H]2C[C@@H](CO[C@H]3CC[C@H](C(=O)O)CC3)N(C(=O)Cc3cc(Cl)c(NC(=O)c4coc5ccccc45)cc3Cl)C2)C[C@H](C)O1 [Example 83, Trans-4-[1-[[4-[(benzo[b]furan-3-ylcarbonyl)amino]-2,5-dichlorophenyl]acetyl]-(4S)-(cis-2,6-dimethylmorpholin-4-yl)-(2S)-pyrrolidinylmethoxy]cyclohexanecarboxylic acid]	–	–	–	–	–	–
–	–	3.9	13	–	–	1000 (≈ 1430 µM)	1000 (≈ 1430 µM)	Cn1cc(C(=O)Nc2cc(F)c(CC(=O)N3C[C@@H](N4CCN(CCF)CC4)C[C@H]3CO[C@H]3CC[C@H](C(=O)O)CC3)cc2Cl)c2ccccc21 [Example 118, Trans-4-[1-[[5-chloro-2-fluoro-4-[(1-methyl-1H-indol-3-ylcarbonyl)amino]phenyl]acetyl]-(4S)-[4-(2-fluoroethyl)piperazin-1-yl]-(2S)-pyrrolidinylmethoxy]cyclohexanecarboxylic acid]	–	–	67	1.41 ×10^5	–	–
1.2	7329	2.5	13	–	–	–	–	Cn1cc(C(=O)Nc2cc(Cl)c(CC(=O)N3C[C@@H](N4CCN(C5CC5)CC4)C[C@H]3CO[C@H]3CC[C@H](C(=O)O)CC3)cc2Cl)c2ccccc21 [Example 139, Trans-4-[1-[[2,5-dichloro-4-[(1-methyl-1H-indol-3-ylcarbonyl)amino]phenyl]acetyl]-(4S)-(4-cyclopropylpiperazin-1-yl)-(2S)-pyrrolidinylmethoxy]cyclohexanecarboxylic acid]	–	–	–	–	–	–
–	–	1.4	12	1970	>2000	–	–	COC1CN([C@H]2C[C@@H](CO[C@H]3CC[C@H](C(=O)O)CC3)N(C(=O)Cc3cc(Cl)c(NC(=O)c4coc5ccccc45)cc3F)C2)C1 (relative stereo) [Example 5, Trans-4-[1-[[4-[(benzo[b]furan-3-ylcarbonyl)amino]-5-chloro-2-fluorophenyl]acetyl]-(4S)-(3-methoxyazetidin-1-yl)-(2S)-pyrrolidinylmethoxy]cyclohexanecarboxylic acid]	–	–	–	–	–	–
0.26	32510	0.97	11	–	–	–	–	COC1CN([C@H]2C[C@@H](CO[C@H]3CC[C@H](C(=O)O)CC3)N(C(=O)Cc3cc(Cl)c(NC(=O)c4csc5ccccc45)cc3F)C2)C1 (relative stereo) [Example 3, Trans-4-[1-[[4-[(benzo[b]thiophen-3-ylcarbonyl)amino]-5-chloro-2-fluorophenyl]acetyl]-(4S)-(3-methoxyazetidin-1-yl)-(2S)-pyrrolidinylmethoxy]cyclohexanecarboxylic acid]	1848	1989	–	–	–	–

— patent US8129366B2, “VLA-4 inhibitory drug” (Daiichi Sankyo Company, Limited, priority 2005, dated 2012)
